Data: patent US11744877B2, “Method for permeabilizing tumor vasculature using a tumor vasculature permeabilizing molecule to improve access of a therapeutic or diagnostic agent to a tumor” (OXFORD UNIVERSITY INNOVATION LIMITED, priority 2010, dated 2023)

Test: Accumulation of intravascularly injected oncolytic adenovirus in EL4 tumours (hexon staining, qPCR of viral DNA)
Format: in vivo, SCID-beige female mice
Settings: 1 μg TNF; tumours 100 mm^3; versus vehicle; FIG. 1B
Method: All adenoviruses were grown in 293 cells, and purified by double banding in CsCl gradients with Benzonase treatment after the first banding. Viral particle (VP) number was determined by measuring DNA content, using a PicoGreen assay (Invitrogen, Carlsbad, Calif.) (Murakami and McCaman, 1999, Anal Biochem; 274(2):283-8).
EL4 cells (2×10^6) were injected subcutaneously and allowed to form tumours in the left flank of 4- to 6-week-old SCID-beige female mice. Evans Blue was administered intravenously to compare permeability in 1 μg TNFα-treated animals versus controls. Oncolytic adenovirus was injected intravascularly when tumours were 100 mm^3 and relative distribution was assessed by hexon staining and quantitative polymerase chain reaction measurement of viral DNA.
To assess distribution of adenovirus in 1 μg TNF-treated animals versus controls, oncolytic adenovirus was injected intravascularly when tumours were 100 mm^3 and the relative distribution was assessed by hexon staining and quantitative polymerase chain reaction measurement of viral DNA. Three controls were also used.
Virus accumulation in the tumour was compared to that in the liver and in the spleen.

| Molecule | increase in accumulation (uptake) of intravenously administered adenovirus particles in tumours |
| --- | --- |
| COc1cc(/C=C\c2ccc(OC)c(OP(=O)(O)O)c2OP(=O)(O)O)cc(OC)c1OC [combrestatin (OXI4503), combrestatin] | increases were small compared to TNF |
| Angiotensin II (DRVYIHPF; Angiotensin-2; UniProt P01019 25-32, looked up) [control reported to increase tumour vessel permeability] | increases were small compared to TNF |
